Measurements as given in PMC8631710, “Structure-Based Design of Selective Fat Mass and Obesity Associated Protein (FTO) Inhibitors” (Journal of Medicinal Chemistry, 2021).
pIC50: −log10 of the molar value.

What was measured:
PHD2 = PHD2 (Homo sapiens, UniProt Q9GZT9); test: PHD2 inhibition, SPE-MS-based assay; assay type: biochemical; details: PHD2 150 nM, 95% confidence limits printed in parentheses, read-out: IC50 against PHD2
Experimental: (§1) PHD2, FIH, […] inhibition assays were performed using a solid-phase extraction–mass spectrometry-based methods as described.[34] KDM inhibition assays were performed using an AlphaScreen-based assay as described.[35]

KDM3A = biological target: T1, KDM3A (Homo sapiens, UniProt Q9Y4C1); test: histone demethylase luminescence-based AlphaScreen assay, KDM3A; assay type: biochemical; details: KDM3A 0.25 nM, 95% confidence limits printed in parentheses, read-out: IC50 against KDM3A
T1 sequence (Q9Y4C1 1-1321): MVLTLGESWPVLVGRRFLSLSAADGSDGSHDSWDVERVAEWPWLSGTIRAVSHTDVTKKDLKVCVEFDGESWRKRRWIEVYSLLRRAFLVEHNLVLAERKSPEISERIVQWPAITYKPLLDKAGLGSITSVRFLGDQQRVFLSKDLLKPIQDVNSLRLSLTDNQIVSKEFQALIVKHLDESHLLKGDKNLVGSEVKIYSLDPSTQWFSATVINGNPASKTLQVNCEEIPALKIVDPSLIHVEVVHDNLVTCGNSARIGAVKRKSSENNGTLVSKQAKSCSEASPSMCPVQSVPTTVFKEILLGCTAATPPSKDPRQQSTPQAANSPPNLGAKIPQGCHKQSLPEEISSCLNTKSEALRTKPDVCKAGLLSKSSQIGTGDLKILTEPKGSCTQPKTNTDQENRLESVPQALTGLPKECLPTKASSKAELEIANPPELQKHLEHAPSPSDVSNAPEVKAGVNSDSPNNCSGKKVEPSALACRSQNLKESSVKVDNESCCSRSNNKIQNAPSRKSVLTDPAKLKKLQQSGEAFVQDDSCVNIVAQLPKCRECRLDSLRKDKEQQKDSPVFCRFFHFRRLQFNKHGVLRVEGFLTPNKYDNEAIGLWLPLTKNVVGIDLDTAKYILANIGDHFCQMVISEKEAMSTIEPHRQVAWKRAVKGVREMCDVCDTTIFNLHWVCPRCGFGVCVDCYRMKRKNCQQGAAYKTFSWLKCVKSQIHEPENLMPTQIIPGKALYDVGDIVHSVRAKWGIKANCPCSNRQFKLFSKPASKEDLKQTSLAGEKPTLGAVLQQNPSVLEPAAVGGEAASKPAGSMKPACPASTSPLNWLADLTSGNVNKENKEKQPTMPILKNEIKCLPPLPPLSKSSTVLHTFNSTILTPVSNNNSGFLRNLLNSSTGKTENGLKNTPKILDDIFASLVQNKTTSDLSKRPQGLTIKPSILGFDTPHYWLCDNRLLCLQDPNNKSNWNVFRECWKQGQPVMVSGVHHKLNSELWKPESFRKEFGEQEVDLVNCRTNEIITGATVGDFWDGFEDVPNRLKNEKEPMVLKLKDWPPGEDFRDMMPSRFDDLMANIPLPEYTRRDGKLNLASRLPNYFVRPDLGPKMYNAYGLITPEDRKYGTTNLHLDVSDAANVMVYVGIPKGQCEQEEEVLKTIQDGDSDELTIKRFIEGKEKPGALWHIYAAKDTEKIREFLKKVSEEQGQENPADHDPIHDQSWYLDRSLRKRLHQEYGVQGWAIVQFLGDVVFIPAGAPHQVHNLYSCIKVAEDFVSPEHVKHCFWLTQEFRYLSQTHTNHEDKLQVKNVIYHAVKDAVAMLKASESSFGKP
Experimental: as §1

KDM6B = KDM6B (Homo sapiens, UniProt O15054); test: histone demethylase luminescence-based AlphaScreen assay, KDM6B; assay type: biochemical; details: KDM6B 0.1 nM, 95% confidence limits printed in parentheses, read-out: IC50 against KDM6B
Experimental: as §1

KDM5B = KDM5B (Homo sapiens, UniProt Q9UGL1); test: histone demethylase luminescence-based AlphaScreen assay, KDM5B; assay type: biochemical; details: KDM5B 2.0 nM, 95% confidence limits printed in parentheses, read-out: IC50 against KDM5B
Chain of KDM5B (Q9UGL1 whole entry): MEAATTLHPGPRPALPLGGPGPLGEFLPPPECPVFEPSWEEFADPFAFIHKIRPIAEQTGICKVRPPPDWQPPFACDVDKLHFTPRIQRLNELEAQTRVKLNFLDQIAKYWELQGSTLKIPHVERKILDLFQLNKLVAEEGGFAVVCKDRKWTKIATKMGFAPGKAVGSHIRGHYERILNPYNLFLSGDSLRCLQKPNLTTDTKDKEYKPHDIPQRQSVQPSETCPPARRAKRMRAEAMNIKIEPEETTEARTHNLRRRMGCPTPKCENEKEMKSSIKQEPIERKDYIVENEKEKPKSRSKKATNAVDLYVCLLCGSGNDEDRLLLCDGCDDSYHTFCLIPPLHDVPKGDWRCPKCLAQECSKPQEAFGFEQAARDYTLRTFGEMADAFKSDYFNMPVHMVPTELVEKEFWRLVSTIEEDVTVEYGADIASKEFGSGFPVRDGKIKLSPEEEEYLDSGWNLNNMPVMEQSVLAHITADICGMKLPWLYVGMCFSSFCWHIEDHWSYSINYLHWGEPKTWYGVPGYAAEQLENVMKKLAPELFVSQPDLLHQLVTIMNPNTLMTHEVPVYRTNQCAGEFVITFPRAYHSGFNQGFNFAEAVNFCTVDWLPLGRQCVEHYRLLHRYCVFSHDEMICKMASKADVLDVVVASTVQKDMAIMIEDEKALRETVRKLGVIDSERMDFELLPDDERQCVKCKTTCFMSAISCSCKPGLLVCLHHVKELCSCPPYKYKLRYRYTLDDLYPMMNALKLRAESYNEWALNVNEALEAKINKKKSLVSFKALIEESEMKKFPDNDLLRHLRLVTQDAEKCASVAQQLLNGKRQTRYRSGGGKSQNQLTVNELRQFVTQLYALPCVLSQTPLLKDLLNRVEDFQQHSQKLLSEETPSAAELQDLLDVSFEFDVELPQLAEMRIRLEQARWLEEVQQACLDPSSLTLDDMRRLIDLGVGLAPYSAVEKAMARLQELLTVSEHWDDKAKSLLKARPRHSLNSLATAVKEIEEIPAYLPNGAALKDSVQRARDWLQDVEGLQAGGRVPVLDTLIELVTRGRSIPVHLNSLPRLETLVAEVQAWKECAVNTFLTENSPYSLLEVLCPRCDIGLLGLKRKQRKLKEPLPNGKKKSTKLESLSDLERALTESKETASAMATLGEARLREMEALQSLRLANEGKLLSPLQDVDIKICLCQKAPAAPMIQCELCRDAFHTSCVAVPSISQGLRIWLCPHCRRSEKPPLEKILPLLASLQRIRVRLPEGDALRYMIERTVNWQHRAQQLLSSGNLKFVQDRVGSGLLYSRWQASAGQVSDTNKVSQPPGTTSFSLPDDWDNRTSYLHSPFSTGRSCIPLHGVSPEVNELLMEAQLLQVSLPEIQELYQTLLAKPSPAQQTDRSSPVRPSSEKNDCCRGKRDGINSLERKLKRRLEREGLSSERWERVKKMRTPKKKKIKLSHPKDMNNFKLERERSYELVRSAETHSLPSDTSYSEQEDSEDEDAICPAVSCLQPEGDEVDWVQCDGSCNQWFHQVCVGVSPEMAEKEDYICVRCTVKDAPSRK
Experimental: as §1

KDM5A = KDM5A (Homo sapiens, UniProt P29375); test: histone demethylase luminescence-based AlphaScreen assay, KDM5A; assay type: biochemical; details: KDM5A 4.0 nM, 95% confidence limits printed in parentheses, read-out: IC50 against KDM5A
Chain of KDM5A (P29375 whole entry): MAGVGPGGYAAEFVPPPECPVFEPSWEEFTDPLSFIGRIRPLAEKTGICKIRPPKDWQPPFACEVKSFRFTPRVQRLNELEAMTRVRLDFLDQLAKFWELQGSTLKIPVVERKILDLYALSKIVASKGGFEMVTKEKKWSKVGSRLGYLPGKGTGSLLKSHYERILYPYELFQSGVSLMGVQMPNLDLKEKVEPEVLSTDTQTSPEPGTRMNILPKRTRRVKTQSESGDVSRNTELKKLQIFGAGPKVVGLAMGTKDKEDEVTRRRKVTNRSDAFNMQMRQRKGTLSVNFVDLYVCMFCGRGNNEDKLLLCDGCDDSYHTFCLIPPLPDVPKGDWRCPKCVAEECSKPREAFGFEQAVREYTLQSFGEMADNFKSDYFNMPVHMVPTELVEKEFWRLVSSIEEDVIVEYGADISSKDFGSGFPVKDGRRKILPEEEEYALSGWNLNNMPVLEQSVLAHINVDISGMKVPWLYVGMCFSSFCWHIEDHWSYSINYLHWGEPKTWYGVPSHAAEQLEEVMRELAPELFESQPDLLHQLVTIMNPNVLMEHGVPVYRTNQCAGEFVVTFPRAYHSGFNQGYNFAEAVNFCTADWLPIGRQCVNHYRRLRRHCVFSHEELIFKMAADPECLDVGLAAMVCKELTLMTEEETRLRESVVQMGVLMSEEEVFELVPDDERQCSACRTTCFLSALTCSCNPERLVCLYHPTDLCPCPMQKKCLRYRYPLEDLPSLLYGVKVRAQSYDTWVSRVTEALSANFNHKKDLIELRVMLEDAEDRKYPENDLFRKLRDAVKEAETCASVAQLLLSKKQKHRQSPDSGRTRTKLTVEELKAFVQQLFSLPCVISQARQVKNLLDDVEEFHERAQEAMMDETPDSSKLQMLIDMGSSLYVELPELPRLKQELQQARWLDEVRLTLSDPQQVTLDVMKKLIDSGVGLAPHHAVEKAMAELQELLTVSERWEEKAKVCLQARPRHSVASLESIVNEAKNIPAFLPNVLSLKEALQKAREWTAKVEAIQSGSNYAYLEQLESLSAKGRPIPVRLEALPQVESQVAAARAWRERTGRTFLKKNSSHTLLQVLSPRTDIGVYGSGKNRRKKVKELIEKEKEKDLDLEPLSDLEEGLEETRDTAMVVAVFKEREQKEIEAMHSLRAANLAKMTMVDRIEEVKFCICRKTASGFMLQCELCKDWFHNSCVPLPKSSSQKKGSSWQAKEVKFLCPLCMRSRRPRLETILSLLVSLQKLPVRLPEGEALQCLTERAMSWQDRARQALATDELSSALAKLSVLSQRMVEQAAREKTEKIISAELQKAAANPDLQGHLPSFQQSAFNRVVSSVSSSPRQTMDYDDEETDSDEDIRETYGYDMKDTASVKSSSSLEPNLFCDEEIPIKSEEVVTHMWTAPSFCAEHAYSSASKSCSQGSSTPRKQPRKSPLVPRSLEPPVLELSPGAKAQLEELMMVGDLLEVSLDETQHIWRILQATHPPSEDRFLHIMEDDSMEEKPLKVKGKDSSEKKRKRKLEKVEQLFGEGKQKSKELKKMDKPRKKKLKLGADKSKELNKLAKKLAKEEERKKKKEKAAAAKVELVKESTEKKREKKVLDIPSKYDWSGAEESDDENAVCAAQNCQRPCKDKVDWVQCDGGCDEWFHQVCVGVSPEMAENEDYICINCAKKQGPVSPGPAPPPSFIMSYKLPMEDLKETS
Experimental: as §1

KDM5C = KDM5C (Homo sapiens, UniProt P41229); test: histone demethylase luminescence-based AlphaScreen assay, KDM5C; assay type: biochemical; details: KDM5C 2.0 nM, 95% confidence limits printed in parentheses, read-out: IC50 against KDM5C
Experimental: as §1

KDM5D = KDM5D (Homo sapiens, UniProt Q9BY66); test: histone demethylase luminescence-based AlphaScreen assay, KDM5D; assay type: biochemical; details: KDM5D 2.0 nM, 95% confidence limits printed in parentheses, read-out: IC50 against KDM5D
Chain of KDM5D (Q9BY66 whole entry): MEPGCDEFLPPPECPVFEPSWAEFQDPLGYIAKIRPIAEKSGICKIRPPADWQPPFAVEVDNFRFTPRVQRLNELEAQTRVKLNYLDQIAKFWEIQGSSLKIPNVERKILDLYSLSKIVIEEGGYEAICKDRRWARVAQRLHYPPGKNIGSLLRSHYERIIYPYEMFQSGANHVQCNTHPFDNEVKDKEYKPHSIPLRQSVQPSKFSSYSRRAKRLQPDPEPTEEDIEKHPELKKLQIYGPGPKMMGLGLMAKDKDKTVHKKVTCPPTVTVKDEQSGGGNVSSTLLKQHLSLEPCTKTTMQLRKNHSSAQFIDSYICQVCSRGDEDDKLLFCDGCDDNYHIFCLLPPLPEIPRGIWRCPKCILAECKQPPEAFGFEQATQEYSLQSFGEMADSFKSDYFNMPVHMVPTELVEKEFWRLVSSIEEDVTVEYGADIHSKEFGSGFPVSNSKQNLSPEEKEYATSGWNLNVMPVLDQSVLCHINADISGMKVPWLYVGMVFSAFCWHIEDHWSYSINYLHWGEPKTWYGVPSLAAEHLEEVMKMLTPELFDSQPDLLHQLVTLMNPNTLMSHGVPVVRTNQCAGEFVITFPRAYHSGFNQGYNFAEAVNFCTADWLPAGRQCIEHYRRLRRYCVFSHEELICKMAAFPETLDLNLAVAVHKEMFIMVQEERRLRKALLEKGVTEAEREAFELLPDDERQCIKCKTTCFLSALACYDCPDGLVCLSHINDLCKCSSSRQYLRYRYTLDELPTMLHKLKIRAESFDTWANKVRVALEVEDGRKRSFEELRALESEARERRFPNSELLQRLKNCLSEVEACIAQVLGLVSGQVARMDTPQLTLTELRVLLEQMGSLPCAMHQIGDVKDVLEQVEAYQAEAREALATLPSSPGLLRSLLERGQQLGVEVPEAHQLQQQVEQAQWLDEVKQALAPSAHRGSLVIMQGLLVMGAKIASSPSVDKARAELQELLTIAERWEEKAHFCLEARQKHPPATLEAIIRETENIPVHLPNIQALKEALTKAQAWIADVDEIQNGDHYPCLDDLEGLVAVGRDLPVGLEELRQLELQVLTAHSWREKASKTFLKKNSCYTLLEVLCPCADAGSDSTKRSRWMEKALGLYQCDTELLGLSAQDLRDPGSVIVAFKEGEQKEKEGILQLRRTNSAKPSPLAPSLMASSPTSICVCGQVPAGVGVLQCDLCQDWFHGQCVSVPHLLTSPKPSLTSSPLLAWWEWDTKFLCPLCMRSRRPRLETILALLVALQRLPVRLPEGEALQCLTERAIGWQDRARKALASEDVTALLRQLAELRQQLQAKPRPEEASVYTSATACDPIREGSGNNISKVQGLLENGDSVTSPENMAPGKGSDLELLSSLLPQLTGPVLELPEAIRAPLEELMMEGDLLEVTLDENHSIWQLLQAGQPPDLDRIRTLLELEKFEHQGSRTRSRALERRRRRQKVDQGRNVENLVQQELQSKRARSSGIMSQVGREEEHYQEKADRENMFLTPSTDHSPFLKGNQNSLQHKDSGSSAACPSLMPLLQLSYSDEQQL

FIH = FIH (Homo sapiens, UniProt Q9NWT6); test: FIH inhibition, SPE-MS-based assay; assay type: biochemical; details: FIH 150 nM, 95% confidence limits printed in parentheses, read-out: IC50 against FIH
Chain of FIH (Q9NWT6 whole entry): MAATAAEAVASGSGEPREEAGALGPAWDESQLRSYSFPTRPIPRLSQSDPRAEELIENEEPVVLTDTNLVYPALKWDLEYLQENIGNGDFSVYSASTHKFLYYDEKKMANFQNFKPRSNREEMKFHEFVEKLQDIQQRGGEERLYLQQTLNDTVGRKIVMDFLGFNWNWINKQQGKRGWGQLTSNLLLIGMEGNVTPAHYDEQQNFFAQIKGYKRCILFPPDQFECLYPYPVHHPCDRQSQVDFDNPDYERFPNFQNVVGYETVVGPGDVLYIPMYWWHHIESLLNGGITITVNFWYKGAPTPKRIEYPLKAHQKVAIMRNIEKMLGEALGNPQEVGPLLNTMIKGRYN
Experimental: as §1

Row | SMILES | pIC50 (PHD2) | pIC50 (KDM3A) | pIC50 (KDM6B) | pIC50 (KDM5B) | pIC50 (KDM5A) | pIC50 (KDM5C) | pIC50 (KDM5D) | melting point | pIC50 (FIH)
1 | O=C(O)CNC(=O)c1nc(-c2cccc3ncccc23)ccc1O [13d, N-((3-Hydroxy-6-(quinolin-5-yl)pyridin-2-yl)carbonyl)glycine] | < 4.00 | < 4.00 | < 4.00 | 4.39 | 4.49 | < 4.00 | < 4.00 | – | –
2 | O=C(O)CNC(=O)c1nc(-c2cccc3ccccc23)ccc1O [13c, N-((3-Hydroxy-6-(naphthalen-1-yl)pyridin-2-yl)carbonyl)glycine] | – | < 4.00 | 4.12 | < 4.00 | < 4.00 | < 4.00 | < 4.00 | 179 to 182 °C | –
3 | O=C(O)CNC(=O)c1nc(Nc2ccc([N+](=O)[O-])cn2)ccc1O [14b, 3-Hydroxy-6-(((5-nitropyridin-2-yl)amino)picolinoyl)glycine] | 5.59 | 4.38 | 4.42 | 4.06 | < 4.00 | < 4.00 | < 4.00 | > 300 °C | 4.30
4 | Nc1ccc(Nc2ccc(O)c(C(=O)NCC(=O)O)n2)cc1 [14c, 6-(((4-Aminophenyl)amino)-3-hydroxypicolinoyl)glycine] | 4.67 | 4.28 | 4.05 | 4.20 | 4.27 | 4.11 | 4.07 | > 300 °C | 4.85
5 | Nc1ccc(Nc2ccc(O)c(C(=O)NCC(=O)O)n2)nc1 [14d, 6-(((5-Aminopyridin-2-yl)amino)-3-hydroxypicolinoyl)glycine] | – | 4.29 | < 4.00 | 4.40 | < 4.00 | < 4.00 | < 4.00 | – | –
6 | O=C(O)CNC(=O)c1nc(Nc2ccc([N+](=O)[O-])cc2)ccc1O [14a, 3-Hydroxy-6-(((4-nitrophenyl)amino)picolinoyl)glycine] | 5.66 | < 4.00 | 4.71 | 4.33 | 4.09 | 4.40 | 4.56 | > 300 °C | 4.34
7 | O=C(O)CNC(=O)c1nc(-c2ccccc2-c2ccccc2)ccc1O [13b, N-((6-(Biphenyl-2-yl)-3-hydroxypyridin-2-yl)carbonyl)glycine] | 4.94 | 4.89 | 4.40 | 4.05 | 4.29 | 4.51 | 4.38 | – | –

Other lines, results leading:

Row | pIC50 (PHD2) | pIC50 (KDM3A) | pIC50 (KDM6B) | pIC50 (KDM5B) | pIC50 (KDM5A) | pIC50 (KDM5C) | pIC50 (KDM5D) | melting point | pIC50 (FIH) | SMILES
8 | < 4.00 | 6.40 | 4.86 | 4.08 | < 4.00 | < 4.00 | < 4.00 | – | – | O=C(O)/C=C/C(=O)NNC(=O)c1cnccc1Cc1ccccc1 [compound 15, (E)-4-(2-(4-Benzylnicotinoyl)hydrazineyl)-4-oxobut-2-enoic Acid, reference compound]
9 | 5.22 | < 4.00 | 4.05 | < 4.00 | < 4.00 | < 4.00 | < 4.00 | 264 to 267 °C | 4.30 | COC(=O)c1ccc(Nc2ccc(O)c(C(=O)NCC(=O)O)n2)cc1 [14g, 3-Hydroxy-6-(((4-(methoxycarbonyl)phenyl)amino)picolinoyl)glycine]
10 | 4.96 | < 4.00 | < 4.00 | 4.27 | < 4.00 | < 4.00 | < 4.00 | > 300 °C | 4.39 | CN(C)C(=O)c1ccc(Nc2ccc(O)c(C(=O)NCC(=O)O)n2)cc1 [14i, 6-(((4-(Dimethylcarbamoyl)phenyl)amino)-3-hydroxypicolinoyl)glycine]
11 | 5.11 | 4.16 | 4.32 | 4.75 | 4.20 | < 4.00 | 4.24 | > 300 °C | 4.21 | CNC(=O)c1ccc(Nc2ccc(O)c(C(=O)NCC(=O)O)n2)cc1 [14h, 3-Hydroxy-6-(((4-(methylcarbamoyl)phenyl)amino)picolinoyl)glycine]
